Source: the supplement of paper PMC10307832

What was measured:
Test in all cases: relative viability (nuclei count vs DMSO), 5 days (fraction); higher = more cells survive
BX 795 + Trametinib = compound: O=C(NCCCNc1nc(Nc2cccc(NC(=O)N3CCCC3)c2)ncc1I)c1cccs1 [BX 795] + CC(=O)Nc1cccc(-n2c(=O)n(C3CC3)c(=O)c3c(Nc4ccc(I)cc4F)n(C)c(=O)c(C)c32)c1 [Trametinib] (partner 0.02 µM)
Outline: (§1)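 Relative viability is defined as nuclei in treated wells over nuclei in vehicle wells. Duplicate plates were run and medians reported. Lung cancer cell lines in 1536-well plates were dosed by pin tool one day after seeding, with one drug or with a fixed anchor-drug dose plus five library-drug doses (not always all listed) in √10 steps, and nuclei were counted after 5 days.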

BX 795 + Tozasertib = compound: O=C(NCCCNc1nc(Nc2cccc(NC(=O)N3CCCC3)c2)ncc1I)c1cccs1 [BX 795] + Cc1cc(Nc2cc(N3CCN(C)CC3)nc(Sc3ccc(NC(=O)C4CC4)cc3)n2)n[nH]1 [Tozasertib] (partner 0.1 µM)
Outline: as §1

BX 795 + Alpelisib = compound: O=C(NCCCNc1nc(Nc2cccc(NC(=O)N3CCCC3)c2)ncc1I)c1cccs1 [BX 795] + Cc1nc(NC(=O)N2CCC[C@H]2C(N)=O)sc1-c1ccnc(C(C)(C)C(F)(F)F)c1 [Alpelisib] (partner 2 µM)
Outline: as §1

BX 795 + Phenformin = compound: O=C(NCCCNc1nc(Nc2cccc(NC(=O)N3CCCC3)c2)ncc1I)c1cccs1 [BX 795] + N=C(N)NC(=N)NCCc1ccccc1 [Phenformin] (partner 250 µM)
Outline: as §1

BX 795 + Olaparib = compound: O=C(NCCCNc1nc(Nc2cccc(NC(=O)N3CCCC3)c2)ncc1I)c1cccs1 [BX 795] + O=C(c1cc(Cc2n[nH]c(=O)c3ccccc23)ccc1F)N1CCN(C(=O)C2CC2)CC1 [Olaparib] (partner 8 µM)
Outline: as §1

Row | Cell Line | relative viability (BX 795 + Trametinib; first compound 0.04 µM) | relative viability (BX 795 + Trametinib; first compound 0.1265 µM) | relative viability (BX 795 + Trametinib; first compound 0.4 µM) | relative viability (BX 795 + Trametinib; first compound 1.265 µM) | relative viability (BX 795 + Tozasertib; first compound 0.04 µM) | relative viability (BX 795 + Tozasertib; first compound 0.1265 µM) | relative viability (BX 795 + Tozasertib; first compound 0.4 µM) | relative viability (BX 795 + Tozasertib; first compound 1.265 µM) | relative viability (BX 795 + Alpelisib; first compound 0.04 µM) | relative viability (BX 795 + Alpelisib; first compound 0.1265 µM) | relative viability (BX 795 + Alpelisib; first compound 0.4 µM) | relative viability (BX 795 + Alpelisib; first compound 1.265 µM) | relative viability (BX 795 + Phenformin; first compound 0.04 µM) | relative viability (BX 795 + Phenformin; first compound 0.1265 µM) | relative viability (BX 795 + Phenformin; first compound 0.4 µM) | relative viability (BX 795 + Phenformin; first compound 1.265 µM) | relative viability (BX 795 + Olaparib; first compound 0.04 µM) | relative viability (BX 795 + Olaparib; first compound 0.1265 µM) | relative viability (BX 795 + Olaparib; first compound 0.4 µM) | relative viability (BX 795 + Olaparib; first compound 1.265 µM)
1 | LC-2-ad | 0.886 | 0.95 | 0.646 | 0.662 | 0.611 | 0.475 | 0.419 | 0.384 | 0.959 | 0.89 | 0.654 | 0.268 | 0.585 | 0.5 | 0.48 | 0.41 | 0.756 | 0.456 | 0.685 | 0.608
2 | LU99A | 0.558 | 0.484 | 0.41 | 0.278 | 0.3 | 0.286 | 0.287 | 0.261 | 0.541 | 0.445 | 0.482 | 0.222 | 0.875 | 0.741 | 0.915 | 0.53 | 0.211 | 0.264 | 0.17 | 0.222
3 | HCC-78 | 0.823 | 0.756 | 0.797 | 0.737 | 0.472 | 0.317 | 0.345 | 0.386 | 0.406 | 0.337 | 0.39 | 0.303 | 0.853 | 0.656 | 0.817 | 0.708 | 1.1 | 0.811 | 0.882 | 0.605
4 | UMC-11 | 0.685 | 0.665 | 0.547 | 0.531 | 0.189 | 0.195 | 0.185 | 0.22 | 1.02 | 1.14 | 1.02 | 0.354 | 0.291 | 0.322 | 0.253 | 0.19 | 0.381 | 0.32 | 0.861 | 0.27
5 | NCI-H2405 | 0.557 | 0.556 | 0.44 | 0.534 | 0.799 | 0.715 | 0.746 | 0.581 | 0.785 | 0.735 | 0.372 | 0.626 | 0.438 | 0.355 | 0.33 | 0.262 | 1.03 | 0.839 | 0.558 | 0.878
6 | HARA | 0.75 | 0.625 | 1.16 | 0.533 | 0.124 | 0.0907 | 0.0944 | 0.0873 | 0.752 | 0.82 | 1.2 | 0.605 | 0.446 | 0.424 | 0.506 | 0.447 | 0.436 | 0.328 | 0.549 | 0.766
7 | NCI-H322M | 0.5 | 0.487 | 0.6 | 0.562 | 0.456 | 0.488 | 0.372 | 0.47 | 0.889 | 0.846 | 0.886 | 1 | 0.858 | 0.796 | 0.951 | 0.659 | 0.978 | 0.821 | 0.577 | 0.885
8 | HCC-44 | 1.14 | 1.08 | 1.23 | 1.12 | 0.934 | 1.05 | 0.581 | 0.351 | 0.742 | 0.865 | 0.85 | 0.543 | 0.157 | 0.162 | 0.222 | 0.153 | 0.995 | 1.01 | 1.06 | 1
9 | EPLC-272H | 0.293 | 0.32 | 0.275 | 0.325 | 0.349 | 0.277 | 0.294 | 0.228 | 1 | – | 0.905 | 0.93 | 0.364 | 0.216 | 0.284 | 0.272 | 0.932 | 0.681 | 0.352 | 0.325
10 | NCI-H3122 | 0.216 | 0.312 | 0.248 | 0.26 | 0.387 | 0.415 | 0.323 | 0.356 | 0.989 | 0.832 | 0.78 | 0.866 | 0.409 | 0.38 | 0.381 | 0.348 | 0.573 | 0.609 | 0.539 | 0.669
11 | NCI-H727 | 0.377 | 0.38 | 0.36 | 0.4 | 0.683 | 0.706 | 0.512 | 0.546 | 0.577 | 0.763 | 0.583 | 0.376 | 0.571 | 0.566 | 0.444 | 0.617 | 0.725 | 0.72 | 1.02 | 0.685
12 | NCI-H1944 | 0.467 | 0.377 | 0.538 | 0.374 | 0.286 | 0.236 | 0.302 | 0.243 | 0.959 | 0.806 | 0.893 | 0.754 | 0.254 | 0.203 | 0.234 | 0.191 | 0.476 | 0.403 | 0.542 | 0.403
13 | NCI-H2228 | 0.689 | 0.713 | 0.389 | 0.349 | 0.283 | 0.247 | 0.303 | 0.217 | 0.787 | 0.857 | 0.828 | 0.362 | 0.325 | 0.469 | 0.272 | 0.15 | 0.788 | 0.74 | 0.559 | 0.311
14 | NCI-H520 | 0.568 | 0.723 | 0.593 | 0.362 | 0.44 | 0.447 | 0.421 | 0.401 | 0.859 | 0.91 | 0.786 | 0.444 | 0.699 | 0.658 | 0.4 | 0.233 | 0.334 | 0.357 | 0.307 | 0.22
15 | 201T | 0.763 | 0.749 | 0.76 | 0.766 | 1.06 | 0.918 | 1.11 | 0.963 | 1.01 | 1.02 | 1.1 | 1.03 | 0.47 | 0.421 | 0.464 | 0.421 | 0.657 | 0.851 | 0.899 | 0.856
16 | NCI-H441 | 0.545 | 0.4 | 0.596 | 0.335 | 0.857 | 0.567 | 0.834 | 0.376 | 0.779 | 0.748 | 1.42 | 0.552 | 0.986 | 0.831 | 0.983 | 0.531 | 0.665 | 0.623 | 0.497 | 0.413
